Values joined by “and” are separate entries in the source; they are usually repeats but may differ in a detail not shown here. Identical values can stand only once. “Also recorded” adds a separate entry of the source.
Assays:
HCT116 cells [1] = experiment: HCT116 cytotoxicity (WST-1 assay) with and without UVA radiation; assay type: cell-based, Human
Method: (§1) Fig. 5 Comparison of G4 ligand photosensitization. […] Vertical axis, fractional survival, horizontal axis log10 drug concentration (M) (f) Representative images of CPD immunofluorescent staining under UV and drug treatment conditions for U2OS cells, quantified from biological duplicates in (g) (h) Scale bar = 100um. U2OS cells were treated with drug or vehicle control, then immediately irradiated with UVA 125 mJ/cm^2; and fixed 1 h later for immunofluorescence staining with CPD antibody. g Distribution of mean intensity of CPD level per cell (total n = in labels), with two biological repeats per condition. Vertical axis, mean CPD intensity per cell, horizontal axis, conditions (h) WT or KO XPA HAP1 cells assayed for cytotoxicity. Vertical axis, fractional survival (WST-1 assay). The horizontal axis, log10 drug concentration (M). Error bars = standard deviation of the mean. Three biological repeats per condition.
(§2) Human epidermal keratinocytes (HEKa) cells were sourced from Thermo Fisher Scientific, and were grown in EpiLife™ Medium with HKGS. HAP WT and XPA knockout cell lines (Horizon Discovery) were cultured in IMDM, 10% FCS. Human HCT116 cells, U2OS cells (ATCC) were grown in McCoy’s 5 A medium with 10% FBS and L-glutamine. All cell lines are mycoplasma free and have been authenticated by STR or SNP profiling. CX-5461 was provided by Senhwa Biosciences, Inc. PDS is from Sigma-Aldrich, BRACO-19 from Alfa Chemistry, PhENDC3 is from Sigma-Aldrich, γ -H2AX antibody from Abcam (1:1000 for IF) and CPD antibody (1:1500) from Cosmo Bio Ltd. (Catalog number: CAC-NM-DAD-001). The WST-1 assay was performed as previously described, γ H2AX foci staining was performed as previously described. Immunofluorescence staining of CPD was performed according to the protocol from the manufacturer (Cosmo Bio Ltd).

[2] = tested on: γ-H2AX (double-stranded DNA breaks); experiment: γ-H2AX immunofluorescent staining with and without UVA radiation; assay type: cell-based; conditions: CX5461 10^-8M, 5x10-8M; PDS 20 x 10^-6M
Method: as §2
(§3) Supplementary Figures and Tables
(§4) Supplementary Figure 1. UVA radiation increased double-stranded DNA breaks and ROS.
(§5) Representative pictures of g -H2AX immunofluorescent staining with and without UVA radiation, for […]
condition, quantified in (b) Quantile and mean intensity of g-H2AX level per cell, vertical axis. UV and drug factor conditions, horizontal axis. […] Number of cells as in Figure 5 g (c) The ratio of ROS level measured after UVA irradiation versus before UVA irradiation was calculated. […]

G-quadruplex (G4) DNA = tested on: G-quadruplex (G4) DNA; set-up: method as in PMID 28211448; conditions: in vitro and in vivo; cited from earlier work
WT HAP1 cells = experiment: HAP1 WT cytotoxicity (WST-1 assay) with and without UVA; assay type: cell-based; conditions: for WST-1 raw signal (Figure 5h): replicates
Method: as §1, §2

[3] = tested on: patients with hematologic malignancies; set-up: method as in PMID 31092402; conditions: cited from earlier work
HCT116 cells [4] = experiment: ROS measurement with H2DCFDA before/after UVA 125 mJ/cm^2; assay type: cell-based, Human; conditions: CX-5461 0.1 μM or PDS 10 μM for 1 h
Method: ROS measurement with H2DCFDA: HCT116 cells were treated with vehicle, CX-5461 0.1 μM or PDS 10 μM for 1 h, then were added with H2DCFDA for 45 min before initial fluorescence measurement. Cells were then irradiated with UVA 125 mJ/cm^2, and immediately sent for a second fluorescent measurement. The ratio of the second and the first fluorescent measurement was calculated as the level of ROS induced by UVA. Assays were performed in the 1-hour time frame within which UV damage manifests, in contrast to G4 ligand-induced damage which takes 3–4 h to be measurable.
as §3, §4, §5
condition, quantified in (b) Quantile and mean intensity of g-H2AX level per cell, vertical axis. UV and drug factor conditions, horizontal axis. Experiments were repeated two times (biological duplicates) and similar results were obtained. Number of cells as in Figure 5 g (c) The ratio of ROS level measured after UVA irradiation versus before UVA irradiation was calculated. Biological triplicates. The horizontal bar = median. ***P<0.0001, Welch’s t-test; n=8
(1 picture or pasted object on this page, not shown here)

U2OS cells = experiment: CPD (cyclobutane pyrimidine dimer) immunofluorescence after UVA 125 mJ/cm^2; assay type: cell-based, Human; conditions: 1 h compound exposure
Method: as §1
Human epidermal keratinocytes (HEKa) cells were sourced from Thermo Fisher Scientific, and were grown in EpiLife™ Medium with HKGS. HAP WT and XPA knockout cell lines (Horizon Discovery) were cultured in IMDM, 10% FCS. Human HCT116 cells, U2OS cells (ATCC) were grown in McCoy’s 5 A medium with 10% FBS and L-glutamine. All cell lines are mycoplasma free and have been authenticated by STR or SNP profiling. […]

Structure (SMILES): Cc1cnc(CNC(=O)c2c(=O)c3ccc(N4CCCN(C)CC4)nc3n3c2sc2ccccc23)cn1 [CX-5461]
- WST-1 reading (source data of fractional survival) (HCT116 cells [1]; 1.00E-07 M, 5mJ/cm2 UV): 0.1726 and 0.1634
- WST-1 reading (source data of fractional survival) (HCT116 cells [1]; 1.00E-07 M, 125 mJ/cm2 UV): 0.1356 and 0.1403
- WST-1 reading (source data of fractional survival) (HCT116 cells [1]; 1.00E-07 M, no UV): 0.3459 and 0.3709
- WST-1 reading (source data of fractional survival) (HCT116 cells [1]; 1.25E-08 M, 5mJ/cm2 UV): 1.8446 and 1.2623
- WST-1 reading (source data of fractional survival) (HCT116 cells [1]; 1.25E-08 M, 125 mJ/cm2 UV): 0.2266 and 0.2178
- WST-1 reading (source data of fractional survival) (HCT116 cells [1]; 1.25E-08 M, no UV): 2.7124 and 3.0988
- WST-1 reading (source data of fractional survival) (HCT116 cells [1]; 1.56E-09 M, 5mJ/cm2 UV): 3.1522 and 3.1435
- WST-1 reading (source data of fractional survival) (HCT116 cells [1]; 1.56E-09 M, 125 mJ/cm2 UV): 1.3637 and 1.8262
- WST-1 reading (source data of fractional survival) (HCT116 cells [1]; 1.56E-09 M, no UV): 3.1762 and 3.2869
- WST-1 reading (source data of fractional survival) (HCT116 cells [1]; 2.00E-07 M, 5mJ/cm2 UV): 0.1417 and 0.1383
- WST-1 reading (source data of fractional survival) (HCT116 cells [1]; 2.00E-07 M, 125 mJ/cm2 UV): 0.1411 and 0.1324
- WST-1 reading (source data of fractional survival) (HCT116 cells [1]; 2.00E-07 M, no UV): 0.3331 and 0.2744
- WST-1 reading (source data of fractional survival) (HCT116 cells [1]; 2.50E-08 M, 5mJ/cm2 UV): 0.4834 and 0.4002
- WST-1 reading (source data of fractional survival) (HCT116 cells [1]; 2.50E-08 M, 125 mJ/cm2 UV): 0.1513 and 0.1801
- WST-1 reading (source data of fractional survival) (HCT116 cells [1]; 2.50E-08 M, no UV): 2.611 and 2.0841
- WST-1 reading (source data of fractional survival) (HCT116 cells [1]; 3.13E-09 M, 5mJ/cm2 UV): 2.2833 and 2.9624
- WST-1 reading (source data of fractional survival) (HCT116 cells [1]; 3.13E-09 M, 125 mJ/cm2 UV): 0.7443 and 0.527
- WST-1 reading (source data of fractional survival) (HCT116 cells [1]; 3.13E-09 M, no UV): 3.0831 and 3.1401
- WST-1 reading (source data of fractional survival) (HCT116 cells [1]; 3.91E-10 M, 5mJ/cm2 UV): 3.2465 and 3.2794
- WST-1 reading (source data of fractional survival) (HCT116 cells [1]; 3.91E-10 M, 125 mJ/cm2 UV): 2.6106 and 3.2813
- WST-1 reading (source data of fractional survival) (HCT116 cells [1]; 3.91E-10 M, no UV): 3.2563 and 3.2975
- WST-1 reading (source data of fractional survival) (HCT116 cells [1]; 5.00E-08 M, 5mJ/cm2 UV): 0.1995 and 0.2071
- WST-1 reading (source data of fractional survival) (HCT116 cells [1]; 5.00E-08 M, 125 mJ/cm2 UV): 0.1444 and 0.1401
- WST-1 reading (source data of fractional survival) (HCT116 cells [1]; 5.00E-08 M, no UV): 0.8754 and 0.871
- WST-1 reading (source data of fractional survival) (HCT116 cells [1]; 6.25E-09 M, 5mJ/cm2 UV): 2.1762 and 2.4422
- WST-1 reading (source data of fractional survival) (HCT116 cells [1]; 6.25E-09 M, 125 mJ/cm2 UV): 0.3527 and 0.3295
- WST-1 reading (source data of fractional survival) (HCT116 cells [1]; 6.25E-09 M, no UV): 2.9424 and 3.2905
- WST-1 reading (source data of fractional survival) (HCT116 cells [1]; 7.81E-10 M, 5mJ/cm2 UV): 3.2172 and 3.1228
- WST-1 reading (source data of fractional survival) (HCT116 cells [1]; 7.81E-10 M, 125 mJ/cm2 UV): 2.9376 and 2.9926
- WST-1 reading (source data of fractional survival) (HCT116 cells [1]; 7.81E-10 M, no UV): 3.2642 and 3.2669
- potentiation of UVA-induced cytotoxicity (HCT116 cells [1]; UV 5 mJ/cm^2 and 125 mJ/cm^2): Strong potentiation
- DNA damage (γ-H2AX) in the presence of UVA [2]: synergistically increased; also recorded: markedly increased
- G4 binding and stabilization (G-quadruplex (G4) DNA): potent G4 binder and stabilizer
- WST-1 raw signal (Figure 5h) (WT HAP1 cells; conc 1.00E-07, 125 mJ/cm2 WT): 0.124 and 0.1238
- WST-1 raw signal (Figure 5h) (WT HAP1 cells; conc 1.00E-07, WT No UV): 0.1248 and 0.1255
- WST-1 raw signal (Figure 5h) (WT HAP1 cells; conc 1.25E-08, 125 mJ/cm2 WT): 0.124 and 0.1239
- WST-1 raw signal (Figure 5h) (WT HAP1 cells; conc 1.25E-08, WT No UV): 2.9461 and 2.8715
- WST-1 raw signal (Figure 5h) (WT HAP1 cells; conc 1.56E-09, 125 mJ/cm2 WT): 1.6148 and 1.5014
- WST-1 raw signal (Figure 5h) (WT HAP1 cells; conc 1.56E-09, WT No UV): 3.4383 and 3.4235
- WST-1 raw signal (Figure 5h) (WT HAP1 cells; conc 2.00E-07, 125 mJ/cm2 WT): 0.1302 and 0.1263
- WST-1 raw signal (Figure 5h) (WT HAP1 cells; conc 2.00E-07, WT No UV): 0.1284 and 0.1271
- WST-1 raw signal (Figure 5h) (WT HAP1 cells; conc 2.50E-08, 125 mJ/cm2 WT): 0.1237 and 0.1243
- WST-1 raw signal (Figure 5h) (WT HAP1 cells; conc 2.50E-08, WT No UV): 0.7915 and 0.7888
- WST-1 raw signal (Figure 5h) (WT HAP1 cells; conc 3.13E-09, 125 mJ/cm2 WT): 0.139 and 0.1466
- WST-1 raw signal (Figure 5h) (WT HAP1 cells; conc 3.13E-09, WT No UV): 3.3417 and 3.4651
- WST-1 raw signal (Figure 5h) (WT HAP1 cells; conc 3.91E-10, 125 mJ/cm2 WT): 3.3908 and 3.3132
- WST-1 raw signal (Figure 5h) (WT HAP1 cells; conc 3.91E-10, WT No UV): 3.3655 and 3.4278
- WST-1 raw signal (Figure 5h) (WT HAP1 cells; conc 5.00E-08, 125 mJ/cm2 WT): 0.1258 and 0.124
- WST-1 raw signal (Figure 5h) (WT HAP1 cells; conc 5.00E-08, WT No UV): 0.1245 and 0.1268
- WST-1 raw signal (Figure 5h) (WT HAP1 cells; conc 6.25E-09, 125 mJ/cm2 WT): 0.1242 and 0.126
- WST-1 raw signal (Figure 5h) (WT HAP1 cells; conc 6.25E-09, WT No UV): 3.3238 and 3.2658
- WST-1 raw signal (Figure 5h) (WT HAP1 cells; conc 7.81E-10, 125 mJ/cm2 WT): 3.145 and 2.7907
- WST-1 raw signal (Figure 5h) (WT HAP1 cells; conc 7.81E-10, WT No UV): 3.4055 and 3.3833
- effect of UVA radiation on cytotoxicity (WT HAP1 cells; with UVA): dramatically increased the cytotoxicity
- dose-limiting toxicities (kind) [3]: palmar–plantar erythrodysesthesia and phototoxicity
- dose recommended for further study ([3]; intravenously once every 3 weeks (q3w)): 170 mg/m^2
- ROS in the presence of UVA (ratio after/before UVA) (HCT116 cells [4]): markedly increased
- potentiation of CPD formation by UVA (U2OS cells): strong potentiation

Source: article PMC9232501, “Results of the phase I CCTG IND.231 trial of CX-5461 in patients with advanced solid tumors enriched for DNA-repair deficiencies” (Nature Communications, 2022)
